Source: patent publication US8962574B2 (Boehringer Ingelheim International GmbH, priority 2008, dated 2015)
Values joined by “and” are separate entries in the source; they are usually repeats but may differ in a detail not shown here. Equal values may be shown once. Read-outs that look alike come from different tables or passages of the source.

Tests used:
[1] = Clinical pharmacokinetics and pharmacodynamics of dabigatran etexilate; type: in vivo; details: after dosing
Source text: Ezekowitz M D, et al., Dabigatran with or without concomitant aspirin compared with warfarin alone in patients with nonvalvular atrial fibrillation (PETRO study), Am. […] The PETRO study is described below.
As noted above, management of warfarin therapy is complex, and failure to adequately monitor patients is associated with risk. […] It also interacts with many common foods, drugs and alcohol which alter its therapeutic effect, putting patients at risk of either a bleeding or thrombotic event. Therefore, warfarin therapy requires careful individualized dosing and frequent monitoring. The significant limitations of VKAs have created a need for an oral anticoagulant with a rapid onset of action, minimal drug interactions, and a predictable anticoagulation effect that needs no monitoring.
Peak levels are seen within 2-3 hours of oral administration. […] Steady-state is reached within 2-3 days with a twice daily regimen. […] The remainder undergoes conjugation with glucuronic acid to form acylglucuronides which are excreted primarily in the bile.

[2] = test system: patients with chronic atrial fibrillation; experiment: PETRO phase 2 12-week dose finding study; type: in vivo, human; details: 12 weeks
Source text: Primary endpoints were bleeding events and changes in D-dimer. […] Minor bleeding was dose related.

[3] = test system: patients with atrial fibrillation
Procedure: PETRO-Ex began while the PETRO study was ongoing and investigators were initially kept blinded to patient treatment group until PETRO was completed. Unblinding investigators to patient treatment was possible thereafter.
Data were summarized descriptively; no hypothesis was to be tested. Events were analyzed on the basis of the treatment at onset. Incidences were reported as number of patients with events as well as normalized to 100 patient-years on the respective treatment.
Written, informed consent was obtained from all patients.
Patients who completed PETRO on 50 mg b.i.d. were switched to 150 mg q.d. upon entry in the PETRO-Ex study (N=93 patients). […] Patients who were down titrated to 50 mg q.d. based on a glomerular filtration rate ≦50 mL/min during PETRO were excluded from the long-term trial; patients down-titrated in other dose levels remained on the q.d. treatment at that dose.
The total exposure reflects both trials, PETRO and PETRO-Ex, together.

[4] = individual patients with LFT abnormalities, one table line per patient (age c0, sex c1), ^# = with concomitant Bilirubin elevation to >2xULN

CCCCCCOC(=O)NC(=N)c1ccc(NCc2nc3cc(C(=O)N(CCC(=O)OCC)c4ccccn4)ccc3n2C)cc1 [dabigatran etexilate, 1-methyl-2-[N-[4-(N-n-hexyloxycarbonylamidino)phenyl]aminomethyl]benzimidazol-5-ylcarboxylic acid-N-(2-pyridyl)-N-(2-ethoxycarbonylethyl)amides]
Onset of anticoagulant effect [1]: within one hour
Major bleeding events ([2]; 300 mg b.i.d. plus ASA groups): 6%
Major bleeding events, number ([2]; 300 mg b.i.d. plus ASA groups): Four
Minor bleeding ([2]; 50, 150, 300 mg b.i.d.): dose related
ALT or AST >2xULN, subjects with event ([3]; 50 mg b.i.d.): 0
ALT or AST >3xULN and Bili >2xULN within 30 days, subjects with event ([3]; 50 mg b.i.d.): 0
ALT or AST >3xULN, subjects with event ([3]; 50 mg b.i.d.): 0
ALT or AST >5xULN, subjects with event ([3]; 50 mg b.i.d.): 0
Adverse Events leading to premature discontinuation, rate ([3]; 50 mg b.i.d.): 21.3 % per year
Adverse Events leading to premature discontinuation, subjects with event ([3]; 50 mg b.i.d.): 5
MI, subjects with event ([3]; 50 mg b.i.d.): 0
Major Bleeds with aspirin, subjects with event ([3]; 50 mg b.i.d.): 0
Major Bleeds without aspirin, subjects with event ([3]; 50 mg b.i.d.): 0
Major Bleeds, subjects with event ([3]; 50 mg b.i.d.): 0
Other MACE, subjects with event ([3]; 50 mg b.i.d.): 2
Stroke and Systemic Thromboembolism, subjects with event ([3]; 50 mg b.i.d.): 3
TIA, subjects with event ([3]; 50 mg b.i.d.): 0
ALT or AST >2xULN, subjects with event ([3]; 50 mg q.d.): 0
ALT or AST >3xULN and Bili >2xULN within 30 days, subjects with event ([3]; 50 mg q.d.): 0
ALT or AST >3xULN, subjects with event ([3]; 50 mg q.d.): 0
ALT or AST >5xULN, subjects with event ([3]; 50 mg q.d.): 0
Adverse Events leading to premature discontinuation, subjects with event ([3]; 50 mg q.d.): 0
MI, subjects with event ([3]; 50 mg q.d.): 0
Major Bleeds with aspirin, subjects with event ([3]; 50 mg q.d.): 0
Major Bleeds without aspirin, subjects with event ([3]; 50 mg q.d.): 0
Major Bleeds, subjects with event ([3]; 50 mg q.d.): 0
Other MACE, subjects with event ([3]; 50 mg q.d.): 0
Stroke and Systemic Thromboembolism, subjects with event ([3]; 50 mg q.d.): 0
TIA, subjects with event ([3]; 50 mg q.d.): 0
ALT or AST >2xULN, rate ([3]; 150 mg b.i.d.): 3.1 % per year
ALT or AST >2xULN, subjects with event ([3]; 150 mg b.i.d.): 21
ALT or AST >3xULN and Bili >2xULN within 30 days, rate ([3]; 150 mg b.i.d.): 0.4 % per year
ALT or AST >3xULN and Bili >2xULN within 30 days, subjects with event ([3]; 150 mg b.i.d.): 3
ALT or AST >3xULN, rate ([3]; 150 mg b.i.d.): 1.9 % per year
ALT or AST >3xULN, subjects with event ([3]; 150 mg b.i.d.): 13
ALT or AST >5xULN, rate ([3]; 150 mg b.i.d.): 1.0 % per year
ALT or AST >5xULN, subjects with event ([3]; 150 mg b.i.d.): 7
Adverse Events leading to premature discontinuation, rate ([3]; 150 mg b.i.d.): 9.8 % per year
Adverse Events leading to premature discontinuation, subjects with event ([3]; 150 mg b.i.d.): 67
MI, subjects with event ([3]; 150 mg b.i.d.): 6
Major Bleeds with aspirin, rate ([3]; 150 mg b.i.d.): 8.7 % per year
Major Bleeds with aspirin, subjects with event ([3]; 150 mg b.i.d.): 11
Major Bleeds without aspirin, rate ([3]; 150 mg b.i.d.): 3.2 % per year
Major Bleeds without aspirin, subjects with event ([3]; 150 mg b.i.d.): 18
Major Bleeds, rate ([3]; 150 mg b.i.d.): 4.2 % per year
Major Bleeds, subjects with event ([3]; 150 mg b.i.d.): 29
Other MACE, subjects with event ([3]; 150 mg b.i.d.): 7
Stroke and Systemic Thromboembolism, subjects with event ([3]; 150 mg b.i.d.): 7
TIA, subjects with event ([3]; 150 mg b.i.d.): 1
ALT or AST >2xULN, rate ([3]; 150 mg q.d.): 3.4 % per year
ALT or AST >2xULN, subjects with event ([3]; 150 mg q.d.): 2
ALT or AST >3xULN and Bili >2xULN within 30 days, subjects with event ([3]; 150 mg q.d.): 0
ALT or AST >3xULN, subjects with event ([3]; 150 mg q.d.): 0
ALT or AST >5xULN, subjects with event ([3]; 150 mg q.d.): 0
Adverse Events leading to premature discontinuation, rate ([3]; 150 mg q.d.): 13.7 % per year
Adverse Events leading to premature discontinuation, subjects with event ([3]; 150 mg q.d.): 8
MI, subjects with event ([3]; 150 mg q.d.): 0
Major Bleeds with aspirin, subjects with event ([3]; 150 mg q.d.): 0
Major Bleeds without aspirin, rate ([3]; 150 mg q.d.): 6.5 % per year
Major Bleeds without aspirin, subjects with event ([3]; 150 mg q.d.): 3
Major Bleeds, rate ([3]; 150 mg q.d.): 5.1 % per year
Major Bleeds, subjects with event ([3]; 150 mg q.d.): 3
Other MACE, subjects with event ([3]; 150 mg q.d.): 0
Stroke and Systemic Thromboembolism, subjects with event ([3]; 150 mg q.d.): 3
TIA, subjects with event ([3]; 150 mg q.d.): 0
ALT or AST >2xULN, rate ([3]; 300 mg b.i.d.): 4.9 % per year
ALT or AST >2xULN, subjects with event ([3]; 300 mg b.i.d.): 4
ALT or AST >3xULN and Bili >2xULN within 30 days, subjects with event ([3]; 300 mg b.i.d.): 0
ALT or AST >3xULN, rate ([3]; 300 mg b.i.d.): 2.4 % per year
ALT or AST >3xULN, subjects with event ([3]; 300 mg b.i.d.): 2
ALT or AST >5xULN, rate ([3]; 300 mg b.i.d.): 1.2 % per year
ALT or AST >5xULN, subjects with event ([3]; 300 mg b.i.d.): 1
Adverse Events leading to premature discontinuation, rate ([3]; 300 mg b.i.d.): 25.6 % per year
Adverse Events leading to premature discontinuation, subjects with event ([3]; 300 mg b.i.d.): 21
MI, subjects with event ([3]; 300 mg b.i.d.): 0
Major Bleeds with aspirin, rate ([3]; 300 mg b.i.d.): 32.7 % per year
Major Bleeds with aspirin, subjects with event ([3]; 300 mg b.i.d.): 6
Major Bleeds without aspirin, rate ([3]; 300 mg b.i.d.): 6.3 % per year
Major Bleeds without aspirin, subjects with event ([3]; 300 mg b.i.d.): 4
Major Bleeds, rate ([3]; 300 mg b.i.d.): 12.2 % per year
Major Bleeds, subjects with event ([3]; 300 mg b.i.d.): 10
Other MACE, subjects with event ([3]; 300 mg b.i.d.): 1
Stroke and Systemic Thromboembolism, subjects with event ([3]; 300 mg b.i.d.): 1
TIA, subjects with event ([3]; 300 mg b.i.d.): 0
ALT or AST >2xULN, rate ([3]; 300 mg q.d.): 1.5 % per year
ALT or AST >2xULN, subjects with event ([3]; 300 mg q.d.): 3
ALT or AST >3xULN and Bili >2xULN within 30 days, rate ([3]; 300 mg q.d.): 0.5 % per year
ALT or AST >3xULN and Bili >2xULN within 30 days, subjects with event ([3]; 300 mg q.d.): 1
ALT or AST >3xULN, rate ([3]; 300 mg q.d.): 1.5 % per year
ALT or AST >3xULN, subjects with event ([3]; 300 mg q.d.): 3
ALT or AST >5xULN, rate ([3]; 300 mg q.d.): 1.5 % per year
ALT or AST >5xULN, subjects with event ([3]; 300 mg q.d.): 3
Adverse Events leading to premature discontinuation, rate ([3]; 300 mg q.d.): 9.6 % per year
Adverse Events leading to premature discontinuation, subjects with event ([3]; 300 mg q.d.): 19
MI, subjects with event ([3]; 300 mg q.d.): 1
Major Bleeds with aspirin, rate ([3]; 300 mg q.d.): 3.6 % per year
Major Bleeds with aspirin, subjects with event ([3]; 300 mg q.d.): 2
Major Bleeds without aspirin, rate ([3]; 300 mg q.d.): 2.1 % per year
Major Bleeds without aspirin, subjects with event ([3]; 300 mg q.d.): 3
Major Bleeds, rate ([3]; 300 mg q.d.): 2.5 % per year
Major Bleeds, subjects with event ([3]; 300 mg q.d.): 5
Other MACE, subjects with event ([3]; 300 mg q.d.): 1
Stroke and Systemic Thromboembolism, subjects with event ([3]; 300 mg q.d.): 5
TIA, subjects with event ([3]; 300 mg q.d.): 0
Serious adverse events: cardiac disorders, number of patients ([3]; PETRO-Ex): 80
Serious adverse events: gastrointestinal disorders, number of patients ([3]; PETRO-Ex): 28
Serious adverse events: infections, number of patients ([3]; PETRO-Ex): 34
Serious adverse events: nervous system disorders, number of patients ([3]; PETRO-Ex): 33
Serious adverse events, number of patients ([3]; PETRO-Ex, including bleeding and thrombotic events): 184
ALT or AST >2xULN, rate ([3]; Total (all doses)): 2.9 % per year
ALT or AST >2xULN, subjects with event ([3]; Total (all doses)): 30
ALT or AST >3xULN and Bili >2xULN within 30 days, rate ([3]; Total (all doses)): 0.4 % per year
ALT or AST >3xULN and Bili >2xULN within 30 days, subjects with event ([3]; Total (all doses)): four
ALT or AST >3xULN, rate ([3]; Total (all doses)): 1.7 % per year
ALT or AST >3xULN, subjects with event ([3]; Total (all doses)): 18
ALT or AST >5xULN, rate ([3]; Total (all doses)): 1.1 % per year
ALT or AST >5xULN, subjects with event ([3]; Total (all doses)): 11
Adverse Events leading to premature discontinuation, rate ([3]; Total (all doses)): 11.5 % per year
Adverse Events leading to premature discontinuation, subjects with event ([3]; Total (all doses)): 120
MI, subjects with event ([3]; Total (all doses)): 7
Major Bleeds with aspirin, rate ([3]; Total (all doses)): 8.5 % per year
Major Bleeds with aspirin, subjects with event ([3]; Total (all doses)): 19
Major Bleeds without aspirin, rate ([3]; Total (all doses)): 3.2 % per year
Major Bleeds without aspirin, subjects with event ([3]; Total (all doses)): 26
Major Bleeds, rate ([3]; Total (all doses)): 4.2 % per year
Major Bleeds, subjects with event ([3]; Total (all doses)): 44
Other MACE, subjects with event ([3]; Total (all doses)): 11
Stroke and Systemic Thromboembolism, subjects with event ([3]; Total (all doses)): 20
TIA, subjects with event ([3]; Total (all doses)): 1
ALT or AST >3xULN and Bili >2xULN within 30 days, subjects with event ([3]; Total (all doses), listed as Dabigatran etexilate): 4
Risk ratio of bleeding event rate on concomitant aspirin vs. without ([3]; in vivo): 2.70
Final Outcome/Comment of LFT abnormality ([3]; individual patients with LFT abnormalities, one table line per patient (age c0, sex c1)): Recovered
LFT abnormality ALT/ULN [3, 4]: >5x xULN (4×) and >5x^# xULN (2×) and >3x xULN (5×) and >3x^# xULN
LFT abnormality AST/ULN [3, 4]: >5x^# xULN (4×) and >5x xULN (4×) and >3x xULN (5×)
Final Outcome/Comment of LFT abnormality ([3]; individual patients with LFT abnormalities, one table line per patient (age c0, sex c1), listed as Dabigatran etexilate): Fatal
